Three compounds from patent US20170189445A1, “XENON ASSOCIATED WITH AN NMDA RECEPTOR ANTAGONIST FOR CONTROLLING TUMOR PROLIFERATION IN THE CENTRAL NERVOUS SYSTEM” (L'Air Liquide, Société Anonyme pour I'Etude et …, priority 2014, published 2017) can be followed below.

Experiment [1] relates to glial cells of astrocyte type and/or precursors thereof in the presence of neuronal cells. Put plainly: Cell proliferation by tritiated thymidine incorporation in neuron-glia mixed (mesencephalon) cultures. The format is cell-based, rat. Set-up: key to Inhibition of proliferation: an absence of response is represented by a “−” sign, synonymous with non-efficacy with respect to cell proliferation; +: a favorable response, synonymous with inhibition of the proliferation of glial cells of astrocyte type; ++: a favorable response, synonymous with inhibition of the proliferation of glial cells of astrocyte type; +++: a favorable response, synonymous with inhibition of the proliferation of glial cells of astrocyte type; ++++=absence of proliferation. The procedure: Cultures are prepared from mesencephalon of rat embryos taken from female Wistar rats, on day 15.5 of gestation. The use of the mesencephalon cultures comprises obtaining a homogeneous cell suspension by mechanical dissociation, i.e. non-enzymatic dissociation, of the embryonic tissue, using Leibovitz L15 medium (Sigma Aldrich). Aliquots of this suspension are added to Nunc 48-well multiwell plates, which have been precoated with a thin layer of polyethyleneimine (1 mg/ml, borate buffer, pH 8.3) so as to enable adhesion of the neuronal cells (cf. Toulorge et al., Faseb J, 2011). The seeding density is between approximately 80 000 and 100 000 cells/culture well. The mesencephalon cultures are maintained in MEM culture medium, containing 1 g/l of glucose, 2 mM of L-glutamine, 1 mM of sodium pyruvate, non-essential amino acids and a penicillin/streptomycin cocktail. During the first week of culture, this medium also contains 10% of fetal calf serum (FCS, Biowest) and 10% of horse serum (HS, Sigma Aldrich), but from the second week, the concentrations of the two sera are reduced (Gao et al., J Neurosci, 2002). Up to the time when the effects of the gases of interest are evaluated, the cultures are placed in a conventional enclosure thermostatically controlled at 37° C., in which the CO2 is maintained at 5% by volume and wherein the atmosphere is saturated with water. The glial proliferation process occurs as soon as the cells are placed in culture. It is analyzed during the second week in vitro when the serum supplementation is reduced to 2% or in some cases to 0.1%. After reduction of the FCS and HS concentrations on D7, the NMDA receptor blocker, memantine, is added to the cultures before placing them under a controlled gaseous atmosphere. Once the pharmacological treatments have been carried out, the multiwell plates containing the cells in culture and the plate used for humidifying the internal compartment of the chamber are placed on a metal base which receives the Plexiglas incubation chamber. The two parts (base and Plexiglas chamber) are butt-joined together by screwing. A gas mixture of interest comprising (% by volume): 20% of O2, 5% of CO2 and 75% of gas tested is then injected into the incubation chamber, with open inlet and outlet valves, while at the same time controlling the output flow rate by means of a flow meter. The gases tested are nitrogen and xenon. The reference output flow rate, set for air at 10 liters/min, is corrected according to the density of the mixture used. When the CO2 measurement reaches 5% at the outlet, the injection of the gas mixture is stopped and the chamber is made totally airtight by closing the inlet and outlet valves. The exposure chamber is then placed in an enclosure at 37° C. for the 7 days of the experimental protocol. On D14, after the […] been broken by opening the inlet and outlet valves and unscrewing the incubation chamber from its base, the cultures are subjected to the tritiated-thymidine proliferation test according to the protocol described in example 1, using as a basis the technique described by Rousseau and colleagues (Mol. Pharmacol., 2013). […] Some experiments were also carried out by reducing the concentrations of the 2 types of serum to 0.1%, while maintaining the cells under a nitrogen-enriched or xenon-enriched atmosphere. The cultures are then recovered for a cell proliferation measurement using tritiated thymidine. […]
A general note: Incorporation of labelled thymidine or its analogues reports DNA synthesis.

Experiment [2] relates to glial cells of astrocyte type and/or precursors thereof. Put plainly: Cell proliferation by tritiated thymidine accumulation in astrocyte-enriched cultures (FCS mitogens). Also on record: key to Reduction in proliferation: an absence of response is represented by a “−” sign, synonymous with non-efficacy with respect to cell proliferation; +: a favorable response, synonymous with inhibition of the proliferation of glial cells of astrocyte type; ++: a favorable response, synonymous with inhibition of the proliferation of glial cells of astrocyte type; +++: a favorable response, synonymous with inhibition of the proliferation of glial cells of astrocyte type; ++++=absence of proliferation. The format is cell-based, rat. The procedure:
Cultures are prepared from total brain of embryos, taken from gestating Wistar female rats on day 15.5 of gestation. The method for producing the cultures enriched with astrocytes (cells immunopositive for glial fibrillary acidic protein or GFAP) comprises obtaining a homogeneous cell suspension of the entire embryonic anterior brain by mechanical dissociation, i.e. non-enzymatic dissociation, using Leibovitz L15 medium (Sigma Aldrich). […] The medium used is Minimum Essential Medium (MEM), containing 10% of fetal calf serum (FCS, Biowest) and 10% of horse serum (HS, Sigma Aldrich), 1 g/l of glucose, 2 mM of L-glutamine, 1 mM of sodium pyruvate, non-essential amino acids, and a penicillin/streptomycin cocktail. When confluence is reached (i.e. after 7-10 days of culture), the adherent cells (>90% of astrocytes) are placed in PBS, then detached by tapping the flasks. […] The astrocytes are then cultured in 48-well multiwell plates (Nunc). Approximately 30 000 cells are applied per culture well. The cells are placed in the presence of the same medium as previously, but with a serum supplementation, reduced to 2%. No change of culture medium is carried out throughout the culture period. The proliferation is triggered and maintained by the presence of FCS in the culture medium. The NMDA receptor blocker, memantine (RD Systems), is added to the cultures just before exposure to the xenon. Dibutyryl cyclic AMP (dbcAMP), a lipophilic form of cAMP used as a reference anti-proliferative molecule (Mourlevat et al., Mol Pharmacol, 2003), is added at the same time as the memantine. Once the pharmacological treatments have been carried out, the multiwell dish plates containing the cells in culture and the plate used to humidify the internal compartment of the chamber are placed on a metal base which receives the Plexiglas incubation chamber. The two parts (base and Plexiglas chamber) are butt-joined together by screwing. A gas mixture of interest comprising (% by volume): 20% of O2, 5% of CO2 and 75% of the gas tested is then injected into the incubation chamber, with open inlet and outlet valves, while at the same time controlling the output flow rate by means of a flow meter. The gases tested are nitrogen and xenon. The reference output flow rate, set for air at 10 liters/min, is corrected according to the density of the mixture used. When the CO2 measurement reaches 5% at the outlet, the injection of the gas mixture is stopped and the chamber is made totally airtight by closing the inlet and outlet valves. The exposure chamber is then placed in an enclosure at 37° C. throughout the experimental protocol. After the […] been broken by opening the inlet and outlet valves and unscrewing the chamber from its base, the cultures are placed in the presence of PBS containing 5 mM of glucose and incubated for 2 h with tritiated thymidine (Perkin, 70-90 Ci/mmol; 0.5 μCi/well) in order to analyze the cell proliferation according to a method previously described by Rousseau and colleagues (Mol Pharmacol, 2013). […] These cultures were maintained, as soon as they were placed in culture and up to D3 in vitro, in an atmosphere containing 75% of nitrogen (N2 75) or 75% of xenon (Xe 75), in the presence or absence of memantine (MEM), […] analog of cAMP, dibutyryl-cAMP, used as reference anti-proliferative molecule. At the end of the treatments, the cultures are recovered for a cell proliferation measurement, using tritiated thymidine incorporation as evaluation index. The results are expressed in % (±SEM, n=6) of the mean values of the cultures maintained under 75% of nitrogen (control condition).

With `[Xe]` [Xe, xenon], the Inhibition of proliferation entry is “+++” in experiment [1] (75% Xe, sera at 0.1%, D7-D14) and “−” in experiment [1] (75% Xe, sera at 2%, D7-D14 (7 days)). Moreover, the “impact on the proliferation” value in experiment [1] (xenon-enriched atmosphere, no memantine) is recorded as “no impact on the proliferation”. In addition, in experiment [2] (75% Xe (20% O2 + 5% CO2), no drug, D0-D3 (3 days)), the Reduction in proliferation result is recorded as “−”. Moreover, the “anti-proliferative effect” value in experiment [2] (xenon replaces nitrogen (75 vol %), no drug) was “no significant anti-proliferative effect”.

As to `CC12CC3CC(C)(C1)CC(N)(C3)C2` [Memantine, memantine], the Inhibition of proliferation entry in experiment [1] (10 μM, 75% N2, sera at 2%, D7-D14) is “−”. The “impact on the proliferation” value in experiment [1] (memantine applied under nitrogen) was “no impact on the proliferation”. Further, the anti-proliferative effect is −39.3% in experiment [2] (30 pM (so in the source), nitrogen-enriched atmosphere); −75.2% in experiment [2] (30 pM (so in the source), xenon-enriched atmosphere); −42.5% in experiment [2] (10 μM, xenon-enriched atmosphere, vs cultures under 75% nitrogen); “no anti-proliferative effect” in experiment [2] (nitrogen-enriched atmosphere, up to 10 μM). Further, the Reduction in proliferation result in experiment [2] (1 μM, 75% N2, D0-D3) is recorded as “−”; in experiment [2] (1 μM, 75% Xe, D0-D3), “−”; in experiment [2] (3 μM, 75% N2, D0-D3), “−”; in experiment [2] (3 μM, 75% Xe, D0-D3) it was “−”; in experiment [2] (10 μM, 75% N2, D0-D3) it was “−”; in experiment [2] (10 μM, 75% Xe, D0-D3) it was “++”. For the same compound, the Reduction in proliferation entry is reported as “++” in experiment [2] (30 μM, 75% N2, D0-D3) and “+++” in experiment [2] (30 μM, 75% Xe, D0-D3).

With `CCCC(=O)Nc1ncnc2c1ncn2[C@@H]1O[C@@H]2COP(=O)(O)O[C@H]2[C@H]1OC(=O)CCC` [dbcAMP, Dibutyryl cyclic AMP], the Reduction in proliferation result is recorded as “++” in experiment [2] (1 mM, 75% N2, D0-D3) and “++” in experiment [2] (1 mM, 75% Xe, D0-D3). The “proliferation in the presence of serum mitogens” value in experiment [2] (atmosphere containing 75 vol % of nitrogen) is “significantly reduced”.
